Assay results from article PMC8161391, “Synthesis of Novel Fluorinated Xanthine Derivatives with High Adenosine A2B Receptor Binding Affinity” (Pharmaceuticals, 2021).
Several values for one entry are separate records, joined by “and”; a condition that tells them apart may be missing. Equal entries are not always repeated. Where two headings read alike, the source gives them in different places.

What was measured:
[1] = target: T1, human adenosine A2B receptor (Homo sapiens, UniProt P29275); test: Competition binding assay, A2B receptor, radioligand [3H]PSB-603; conditions: vs [3H]PSB-603, mean ± SEM of three experiments
T1 construct: host or cells: CHO or HEK cells (membrane preparations)
T1 sequence (P29275 1-332): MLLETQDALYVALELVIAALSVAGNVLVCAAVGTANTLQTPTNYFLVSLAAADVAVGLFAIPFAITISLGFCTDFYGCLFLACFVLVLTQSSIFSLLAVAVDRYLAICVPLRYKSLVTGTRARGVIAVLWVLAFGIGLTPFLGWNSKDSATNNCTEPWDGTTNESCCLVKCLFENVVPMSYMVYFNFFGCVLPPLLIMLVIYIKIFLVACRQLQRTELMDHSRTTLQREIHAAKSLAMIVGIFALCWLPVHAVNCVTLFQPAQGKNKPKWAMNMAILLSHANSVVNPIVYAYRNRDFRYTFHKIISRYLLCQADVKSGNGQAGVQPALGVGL
Description: (§1) For the two novel fluorinated xanthine derivatives, the binding affinity towards the adenosine receptor subtypes A2B, A2A, A1, and A3 was determined in competition binding assays by incubation of the appropriate standard radioligand with membrane preparations of Chinese hamster ovary (CHO) and human embryonic kidney (HEK) cells, respectively, expressing the corresponding human receptor subtype (Table 2).
(§2) Membrane preparations of recombinant CHO or HEK cells expressing the respective human adenosine receptor subtype were obtained according to Borrman et al. or purchased from Perkin Elmer (Waltham, MA, USA). Radioligand binding assays for human A1, A2A, A2B, and A3 receptors were performed according to Alnouri et al.. The following radioligands were employed: [^3H]2-chloro-N^6-cyclopentyladenosine ([^3H]CCPA, 1 nM) for the A1 receptor, [^3H]3-(3-hydroxypropyl)-7-methyl-8-(m-methoxystyryl)-1-propargylxanthine ([^3H]MSX-2, 1 nM) for the A2A receptor, [^3H]8-(4-[4-(4-chlorophenyl)piperazine-1-sulfonyl]phenyl)-1-propyl-2,3,6,7-tetrahydro-1H-purine-2,6-dione ([^3H]PSB-603, 0.3 nM) for the A2B receptor, and [^3H](R)-8-ethyl-4-methyl-2-(phenyl)1,4,7,8-tetrahydro-5H-imidazo[2,1-i]purin-5-one ([^3H]PSB-11, 1 nM) for the A3 receptor. Three separate experiments were performed for determination of Ki values. All data were analyzed with GraphPad Prism, version 4.1 (GraphPad Inc., La Jolla, CA).

[2] = target: T2, human adenosine A3 receptor (Homo sapiens, UniProt P0DMS8); test: Competition binding assay, A3 receptor, radioligand [3H]PSB-11; conditions: for inhibition at 1 µM / Ki: human receptor; for inhibition at 1 µM: at a concentration of 1 µM; for Ki: vs [3H]PSB-11, mean ± SEM of three experiments; for Selectivity Ratio Ki(Ax)/Ki(A2B) A3/A2B: human receptors
T2 construct: host or cells: CHO or HEK cells (membrane preparations)
T2 sequence (P0DMS8 1-318): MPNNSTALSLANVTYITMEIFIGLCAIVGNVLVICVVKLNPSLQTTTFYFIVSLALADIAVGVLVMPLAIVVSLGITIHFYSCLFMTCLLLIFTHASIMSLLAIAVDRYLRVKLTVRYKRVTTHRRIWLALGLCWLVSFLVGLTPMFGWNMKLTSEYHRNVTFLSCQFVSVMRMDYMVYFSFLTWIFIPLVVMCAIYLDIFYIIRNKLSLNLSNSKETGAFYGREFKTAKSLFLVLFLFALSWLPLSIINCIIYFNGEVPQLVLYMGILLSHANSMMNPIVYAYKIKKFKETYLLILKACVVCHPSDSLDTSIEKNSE
Description: as §1, §2

[3] = target: T3, human adenosine A1 receptor (Homo sapiens, UniProt P30542); test: Competition binding assay, A1 receptor, radioligand [3H]CCPA; conditions: for Ki: vs [3H]CCPA, mean ± SEM of three experiments; for Selectivity Ratio Ki(Ax)/Ki(A2B) A1/A2B: human receptors
T3 construct: host or cells: CHO or HEK cells (membrane preparations)
T3 sequence (P30542 1-326): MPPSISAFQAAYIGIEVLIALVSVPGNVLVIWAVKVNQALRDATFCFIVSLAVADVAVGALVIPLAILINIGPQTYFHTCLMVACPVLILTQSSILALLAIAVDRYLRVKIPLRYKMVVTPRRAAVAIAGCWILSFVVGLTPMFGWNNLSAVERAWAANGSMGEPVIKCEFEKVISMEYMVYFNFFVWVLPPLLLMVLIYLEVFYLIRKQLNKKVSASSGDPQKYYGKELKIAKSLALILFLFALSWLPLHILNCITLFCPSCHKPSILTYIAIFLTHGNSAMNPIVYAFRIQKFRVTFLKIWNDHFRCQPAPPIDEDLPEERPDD
Description: as §1, §2

[4] = target: T4, human adenosine A2A receptor (Homo sapiens, UniProt P29274); test: Competition binding assay, A2A receptor, radioligand [3H]MSX-2; conditions: for Ki: human receptor, vs [3H]MSX-2, mean ± SEM of three experiments; for Selectivity Ratio Ki(Ax)/Ki(A2B) A2A/A2B: human receptors
T4 construct: host or cells: CHO or HEK cells (membrane preparations)
Description: as §1, §2

[5] = target: human A2B; conditions: determined versus [3H]ZM214385 or [125I]IABOPX; read-out: Ki (human A2B) ± SEM; cited from earlier work
[6] = tested on: adenosine A1 receptor; test: Receptor binding with adenosine-receptor-expressing rat brain cortical membranes, A1; conditions: rat A1 versus human A2B, from published Ki values
[7] = tested on: adenosine A2A receptor; test: Receptor binding with adenosine-receptor-expressing rat brain cortical membranes, A2A; conditions: rat A2A versus human A2B, from published Ki values
[8] = target: adenosine A2A receptor; parameters: method as in PMID 19569717, PMID 30835463, PMID 16821798; conditions: rat brain cortical membranes; cited from earlier work
[9] = target: adenosine A1 receptor; parameters: method as in PMID 19569717, PMID 30835463, PMID 16821798; conditions: rat brain cortical membranes; cited from earlier work
[10] = target: T2, human adenosine A3 receptor; parameters: method as in PMID 19569717, PMID 30835463, PMID 16821798; conditions: cited from earlier work; for % Inhibition of Radioligand Binding A3: at a concentration of 1 µM (as headed)
[11] = target: adenosine A2B receptor; conditions: cited from earlier work
[12] = target: human A2B; parameters: method as in PMID 16759111; conditions: determined versus [3H]ZM214385; read-out: Ki (human A2B) ± SEM; cited from earlier work
[13] = cited from earlier work
[14] = parameters: method as in PMID 32366046; conditions: cited from earlier work
[15] = Organ distribution of [3H]PSB-603 in mice; type: in vivo, CD-1 mice; conditions: 3 min p.i.
Description: To estimate the ability of [^3H]PSB-603 to penetrate the BBB in vivo, an initial biodistribution study in healthy CD1 mice was performed.
All animal studies followed the international guidelines on animal care, and the study protocols were approved by the Landesdirektion Leipzig, the local authority for animal care (Reg.-Nr.: TVV 08/13; Reference number: 24-9168.11/18/8; approval date: 12 June 2013). Animal experiments were performed with female CD-1 mice, 10–12 weeks old, obtained from the Experimental Centre of the Faculty of Medicine (MEZ) at the Leipzig University, Leipzig, Germany.
[^3H]PSB-603 (specific activity 2.92 TBq/mmol, Pharmaron formerly Quotient Bioresearch (Radiochemicals) Ltd, Cardiff, UK; the precursor was synthesized at the University of Bonn, Germany) was dissolved in 100 µL of sterile isotonic saline and administered as a bolus injection via the tail vein of the restrained animal. At 3 min (n = 3; dose: […]), retro-orbital blood samples were obtained from the anesthetized animals. Immediately afterwards, organs of interest were isolated and blood plasma was obtained by centrifugation of the whole blood sample (15,000 rpm, room temperature, 1 min). All samples were weighed and dissolved in SOLVABLE (PerkinElmer Life and Analytical Sciences, Rodgau, Germany) for 5 h at 50 °C, overnight at 30 °C, and a further 5 h at 50 °C. By adding H2O2, decolorization of the samples was achieved. The samples were left to cool down to room temperature before the addition of 15 mL of Ultima Gold cocktail (PerkinElmer Life and Analytical Sciences, Rodgau, Germany). The samples were shaken overnight, and the radioactivity was measured in a Beckman Liquid Scintillation Counter LS 6500 (Beckman Coulter, Fullerton, CA, USA). For each sample, the percentage of the injected dose was calculated and normalized according to the tissue weight (% ID/g tissue), followed by normalization according to the injected dose and the weight of the animal [(% ID/g tissue)/(100%/g animal)] to calculate the standardized uptake value (SUV) for each tissue.

[16] = target: T4, human adenosine A2A receptor; parameters: method as in PMID 19569717, PMID 30835463, PMID 16821798; conditions: cited from earlier work
[17] = target: T3, human adenosine A1 receptor; parameters: method as in PMID 19569717, PMID 30835463, PMID 16821798; conditions: cited from earlier work
[18] = at a concentration of 1 µM (as headed)

T4 sequence (P29274 whole entry): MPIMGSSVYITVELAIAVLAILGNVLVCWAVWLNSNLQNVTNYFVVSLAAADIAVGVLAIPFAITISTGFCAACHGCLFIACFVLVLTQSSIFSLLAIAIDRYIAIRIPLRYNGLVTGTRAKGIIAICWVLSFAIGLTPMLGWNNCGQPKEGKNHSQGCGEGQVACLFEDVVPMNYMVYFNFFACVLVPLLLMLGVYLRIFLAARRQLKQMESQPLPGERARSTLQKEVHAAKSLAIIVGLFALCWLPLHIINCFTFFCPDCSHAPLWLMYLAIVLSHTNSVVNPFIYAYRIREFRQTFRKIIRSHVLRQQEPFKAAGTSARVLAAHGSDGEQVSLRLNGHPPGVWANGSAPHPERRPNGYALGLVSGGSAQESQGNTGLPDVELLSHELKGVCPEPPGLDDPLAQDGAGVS

CCCn1c(=O)[nH]c2nc(-c3ccc(S(=O)(=O)N4CCC(F)CC4)cc3)[nH]c2c1=O [Compound 6, 8-(4-((4-Fluoropiperidin-1-yl)sulfonyl)phenyl)-1-propyl-3,7-dihydro-1H-purine-2,6-dione] showed a Ki [1] of 12.3 ± 3.6 nM, an inhibition at 1 µM [2] of 38% and a Ki [2] of over 1000 nM. For the same molecule, the “Selectivity Ratio Ki(Ax)/Ki(A2B) A3/A2B” value [2] was over 81, the inhibition at 1 µM ([3]; human receptor, at a concentration of 1 µM) was 44% and the Ki ([3]; human receptor) was about 1000 nM. For the same molecule, the “Selectivity Ratio Ki(Ax)/Ki(A2B) A1/A2B” value [3] was 81, the Ki [4] was 158 ± 28 nM and the “Selectivity Ratio Ki(Ax)/Ki(A2B) A2A/A2B” value [4] was 13.

In the case of CCCn1c(=O)c2[nH]c(-c3ccc(OCC(=O)Nc4ccc(C#N)cc4)cc3)nc2n(CCC)c1=O [MRS-1754], the Ki [5] is given as 1.97 ± 0.31 nM.

For CCCn1c(=O)[nH]c2nc(-c3ccc(S(=O)(=O)Nc4ccnc(F)c4)cc3)[nH]c2c1=O [Compound 5, 4-(2,6-Dioxo-1-propyl-2,3,6,7-tetrahydro-1H-purin-8-yl)-N-(2-fluoropyridin-4-yl)benzenesulfonamide], the Ki [1] was 9.97 ± 0.86 nM, the inhibition at 1 µM [2] was 45% and the Ki [2] was about 1000 nM. For the same molecule, the Ki ([3]; human receptor) was 255 ± 32 nM, the “Selectivity Ratio Ki(Ax)/Ki(A2B) A1/A2B” value [3] was 25 and the Ki [4] was 375 ± 53 nM. For the same molecule, the “Selectivity Ratio Ki(Ax)/Ki(A2B) A2A/A2B” value [4] was 38.

In the case of CCCn1c(=O)[nH]c2nc(-c3ccc(S(=O)(=O)Nc4ccccc4)cc3)[nH]c2c1=O [Compound 7], the “Selectivity Ratio Ki(Ax)/Ki(A2B) A1/A2B” value [6] is reported as 0.06, the “Selectivity Ratio Ki(Ax)/Ki(A2B) A3/A2B” value [2] is reported as over 32 and the “Selectivity Ratio Ki(Ax)/Ki(A2B) A2A/A2B” value [7] is reported as 0.7. For the same molecule, the Ki [8] was 23 ± 13 nM, the Ki [9] was 1.8 ± 1 nM and the “% Inhibition of Radioligand Binding A3” value [10] was 48%. For the same molecule, the Ki [10] was over 1000 nM.

For [11CH3]n1nc(-c2ccccc2)c(=O)n2c3ccccc3nc12 [Compound 1], the IC50 [11] is listed as 210 ± 12.3 nM.

For Cn1c(=O)c2[nH]c(-c3cnn(Cc4cccc(C(F)(F)F)c4)c3)nc2n(C)c1=O [CVT-6975], the Ki [12] is given as 1 nM.

For O=C(Nc1cnc(-c2ccnc([18F])c2)c(-c2ccccc2F)n1)C1CC1 [Compound 2], the “affinity towards the adenosine A2B receptor (in words)” value [11] is given as “good affinity” and the “metabolic degradation in vivo (in words)” value ([13]; metabolism studies in mice) is given as “rapid metabolic degradation”.

For O=c1[nH]c(=O)c2cc(-c3ccnc([18F])c3)c(-c3ccco3)nc2[nH]1 [Compound 3], the “affinity towards the A2B receptor (in words)” value [11] is listed as “good affinity”, the “brain uptake (in words)” value [14] is listed as “rather low” and the “in vivo stability (in words)” value ([13]; compared to 2) is listed as “considerably improved in vivo stability”.

With “[^3H]8-(4-[4-(4-chlorophenyl)piperazine-1-sulfonyl]phenyl)-1-propyl-2,3,6,7-tetrahydro-1H-purine-2,6-dione [[^3H]PSB-603]” the “uptake in the bladder, appendix, and lung” value ([15]; mice) was “low to moderate”, the “uptake in the liver” value ([15]; mice) was “high” and the “uptake in the pituitary gland” value ([15]; mice) was “moderate”. The “standardized uptake value (SUV) in brain” value ([15]; mouse brain, i.v., n = 3) was 0.21 ± 0.07 and 0.2.

In the case of CCCn1c(=O)[nH]c2nc(-c3ccc(S(=O)(=O)N4CCN(c5ccc(Cl)cc5)CC4)cc3)[nH]c2c1=O [PSB-603, 8-(4-[4-(4-chlorophenyl)piperazine-1-sulfonyl]phenyl)-1-propyl-2,3,6,7-tetrahydro-1H-purine-2,6-dione], the “% Inhibition of Radioligand Binding A2A” value [16, 18] is given as 7 ± 14%, the Ki [16] is given as over 10000 nM and the “Selectivity Ratio Ki(Ax)/Ki(A2B) A3/A2B” value [2] is given as >18,000. The “% Inhibition of Radioligand Binding A3” value [10] was 10 ± 15%, the Ki [10] was over 10000 nM and the “Selectivity Ratio Ki(Ax)/Ki(A2B) A1/A2B” value [3] was >18,000. For the same molecule, the “% Inhibition of Radioligand Binding A1” value [17, 18] was 10 ± 3%, the Ki [17] was over 10000 nM and the “Selectivity Ratio Ki(Ax)/Ki(A2B) A2A/A2B” value [4] was >18,000.

With CCCn1c(=O)[nH]c2nc(-c3ccc(S(=O)(=O)N4CCCCC4)cc3)[nH]c2c1=O [Compound 8] the “Selectivity Ratio Ki(Ax)/Ki(A2B) A1/A2B” value [6] was 4, the “Selectivity Ratio Ki(Ax)/Ki(A2B) A3/A2B” value [2] was 7 and the “Selectivity Ratio Ki(Ax)/Ki(A2B) A2A/A2B” value [7] was 35. The Ki [8] was 714 ± 122 nM and the Ki [9] was 91.1 ± 25 nM.
